pEC50: −log10 of the molar value. Where two headings read alike, the source gives them in different places.
Experiments:
HCV GT1a(H77) replicon = experiment: HCV replicon luciferase reporter assay, genotype 1a; assay type: cell-based, HCV genotype 1a; conditions: Hepatitis C virus, 72 h, HUH-7 cells, Renilla luciferase, 3 days incubation
Description: A stable HCV GT1a(H77) replicon luciferase reporter cell line (Yanagi M, Purcell RH, Emerson S U, et al. Transcripts from a single full-length cDNA clone of hepatitis C virus are infectious when directly transfected into the liver of a chimpanzee. Proc Natl Acad Sci USA 1997; 94(16):8738-8743) was generated as described previously for the genotype 1b(Con1) replicon luciferase cell line. The replicon construct was modified by introducing mutations into the genes encoding the NS3 helicase domain (proline replaced by leucine at position 1496) and NS5A (serine to isoleucine at position 2204) to improve replication in cell culture.
(§1) HCV replicon luciferase assays were developed to monitor the inhibitory effects of compounds described in the disclosure on HCV genotypes 1a and 1b viral replication. HUH-7 cells, constitutively expressing the HCV replicon, were grown in Dulbecco's Modified Eagle Media (DMEM) (Gibco-BRL) containing 10% Fetal calf serum (FCS) (Sigma) and 1 mg/mL G418 (Gibco-BRL). Compounds were serially diluted 3 folds in DMSO for a twenty-point titration and subsequently transferred to sterile 384-well tissue-culture treated plates (Corning cat #3571). The plates were then seeded with 50 μL of cells at a density of 3.0×10^3 cells/well in DMEM containing 4% FCS (final DMSO concentration at 0.5%). After 3 days incubation at 37° C., cells were analyzed for Renilla Luciferase activity using the EnduRen as substrate (Promega cat #E6485). The EnduRen substrate was diluted in DMEM and then added to the plates to a final concentration of 7.5 μM. The plates were incubated for 2 hrs at 37° C. and then read immediately for 30 seconds with Viewlux Imager (PerkinElmer) using a luminescence program. To assess cytotoxicity of compounds, CC50 values were generated by multiplexing the EnduRen-containing plates with Cell Titer-Blue (Promega, cat #G8082). Cell-Titer Blue (3 μL) was added to each well and incubated for 8 hrs at 37° C. The fluorescence signal from each well was read, with an excitation wavelength at 525/10 nm and an emission wavelength of 598/10 nm, using the Viewlux Imager.
(§2) The EC50 values for compounds were calculated by using a four-parameter logistic equation: y=A+[…])/(1+((C/x)^D))), where A and B denotes minimal and maximal % inhibition, respectively, C is the EC50, D is the hill slope and x represents compound concentration.

HCV GT1b(Con1) replicon = experiment: HCV replicon luciferase reporter assay, genotype 1b; assay type: cell-based, HCV genotype 1b; conditions: Hepatitis C virus, 72 h, HUH-7 cells, Renilla luciferase, 3 days incubation
Description: An HCV GT1b(Con1) replicon cell system was established as described by Lohmann V, Korner F, Koch J, Herian U, Theilmann L, Bartenschlager R., Science 285(5424):110-3 (1999) and modified to introduce a luciferase reporter (Krieger N, Lohmann V, and Bartenschlager R, J. Virol. 75(10):4614-4624 (2001)). cDNA encoding a humanized form of the Renilla luciferase gene, and a linker sequence fused directly to the 3′-end of the luciferase gene were introduced into the replicon construct using an Asc1 restriction site located in core, directly upstream of the neomycin marker gene. The adaptive mutation at position 1179 (serine to isoleucine) was also introduced (Blight K J, Kolykhalov, A A, Rice, C M, Science 290(5498):1972-1974). A stable cell line constitutively expressing this HCV replicon construct was generated by first linearizing plasmid DNAs with ScaI. RNA transcripts were synthesized in vitro using the T7 MegaScript transcription kit (Ambion, Austin, Tex.) according to manufacturer's directions. In vitro transcripts of the cDNA were transfected into the human hepatoma cell line, HUH-7. […] Resulting cell lines were characterized for positive and negative strand RNA production and protein production over time.
as §1, §2

SMILES	pEC50 (HCV GT1a(H77) replicon; read-out: LE_1a (EC50, range))	pEC50 (HCV GT1b(Con1) replicon; read-out: LE_1b (EC50, range))	pEC50 (HCV GT1a(H77) replicon; read-out: LE_1a (EC50))	pEC50 (HCV GT1b(Con1) replicon; read-out: LE_1b (EC50))
CC(C)Oc1ccc(-c2cc(O[C@@H]3C[C@H]4C(=O)N[C@]5(C(=O)NS(=O)(=O)C6(C)CC6)C[C@H]5/C=C\CC[C@H](C)C[C@@H](C)[C@H](NC(=O)OC(C)(C)C(F)(F)F)C(=O)N4C3)cc(-n3cccn3)n2)cc1 [Compound 1014, 1,1,1-trifluoro-2-methylpropan-2-yl ((2R,6S,7R,9S,13aS,14aR,16aS,Z)-2-((2-(4-isopropoxyphenyl)-6-(1H-pyrazol-1-yl)pyridin-4-yl)oxy)-7,9-dimethyl-14a-(((1-methylcyclopropyl)sulfonyl)carbamoyl)-5,16-dioxo-1,2,3,5,6,7,8,9,10,11,13a,14,14a,15,16,16a-hexadecahydrocyclopropa[e]pyrrolo[1,2-a][1,4]diazacyclopentadecin-6-yl)carbamate]	6.44 to 7.46	7.46 to 8.30	–	–
Cc1cc(O[C@@H]2C[C@H]3C(=O)N[C@]4(C(=O)NS(=O)(=O)C5(C)CC5)C[C@H]4/C=C\CC[C@@H](C)C[C@@H](C)[C@H](NC(=O)OC(C)(C)C(F)(F)F)C(=O)N3C2)cc(-c2cncs2)n1 [Compound 1015, 1,1,1-trifluoro-2-methylpropan-2-yl ((2R,6S,7R,9R,13aS,14aR,16aS,Z)-7,9-dimethyl-2-((2-methyl-6-(thiazol-5-yl)pyridin-4-yl)oxy)-14a-(((1-methylcyclopropyl)sulfonyl)carbamoyl)-5,16-dioxo-1,2,3,5,6,7,8,9,10,11,13a,14,14a,15,16,16a-hexadecahydrocyclopropa[e]pyrrolo[1,2-a][1,4]diazacyclopentadecin-6-yl)carbamate]	7.46 to 8.30	7.46 to 8.30	–	–
Cc1cc(O[C@@H]2C[C@H]3C(=O)N[C@]4(C(=O)NS(=O)(=O)C5(C)CC5)C[C@H]4/C=C\CC[C@H](C)C[C@@H](C)[C@H](NC(=O)OC(C)(C)C(F)(F)F)C(=O)N3C2)cc(-c2cncs2)n1 [Compound 1016, 1,1,1-trifluoro-2-methylpropan-2-yl ((2R,6S,7R,9S,13aS,14aR,16aS,Z)-7,9-dimethyl-2-((2-methyl-6-(thiazol-5-yl)pyridin-4-yl)oxy)-14a-(((1-methylcyclopropyl)sulfonyl)carbamoyl)-5,16-dioxo-1,2,3,5,6,7,8,9,10,11,13a,14,14a,15,16,16a-hexadecahydrocyclopropa[e]pyrrolo[1,2-a][1,4]diazacyclopentadecin-6-yl)carbamate]	6.44 to 7.46	6.44 to 7.46	–	–
CC(C)Oc1ccc(-c2cc(O[C@@H]3C[C@H]4C(=O)N[C@]5(C(=O)NS(=O)(=O)C6(C)CC6)C[C@H]5/C=C\CC[C@@H](C)C[C@@H](C)[C@H](NC(=O)OC5(C(F)(F)F)CCCOC5)C(=O)N4C3)cc(-c3cncs3)n2)cc1 (stereo partly drawn) [Compound 1017, 3-(trifluoromethyl)tetrahydro-2H-pyran-3-yl ((2R,6S,7R,9R,13aS,14aR,16aS,Z)-2-((2-(4-isopropoxyphenyl)-6-(thiazol-5-yl)pyridin-4-yl)oxy)-7,9-dimethyl-14a-(((1-methylcyclopropyl)sulfonyl)carbamoyl)-5,16-dioxo-1,2,3,5,6,7,8,9,10,11,13a,14,14a,15,16,16a-hexadecahydrocyclopropa[e]pyrrolo[1,2-a][1,4]diazacyclopentadecin-6-yl)carbamate]	9.00 to 9.29	9.00 to 9.29	9.02	9.09
CC(C)Oc1ccc(-c2cc(O[C@@H]3C[C@H]4C(=O)N[C@]5(C(=O)NS(=O)(=O)C6(C)CC6)C[C@H]5/C=C\CC[C@H](C)C[C@@H](C)[C@H](NC(=O)OC5(C(F)(F)F)CCCOC5)C(=O)N4C3)cc(-c3cncs3)n2)cc1 (stereo partly drawn) [Compound 1018, 3-(trifluoromethyl)tetrahydro-2H-pyran-3-yl ((2R,6S,7R,9S,13aS,14aR,16aS,Z)-2-((2-(4-isopropoxyphenyl)-6-(thiazol-5-yl)pyridin-4-yl)oxy)-7,9-dimethyl-14a-(((1-methylcyclopropyl)sulfonyl)carbamoyl)-5,16-dioxo-1,2,3,5,6,7,8,9,10,11,13a,14,14a,15,16,16a-hexadecahydrocyclopropa[e]pyrrolo[1,2-a][1,4]diazacyclopentadecin-6-yl)carbamate]	7.46 to 8.30	8.30 to 9.00	–	–
CC(C)Oc1ccc(-c2cc(O[C@@H]3C[C@H]4C(=O)N[C@]5(C(=O)NS(=O)(=O)C6(C)CC6)C[C@H]5/C=C\CC[C@@H](C)C[C@@H](C)[C@H](NC(=O)OC(C)(C)C(F)(F)F)C(=O)N4C3)cc(-c3ncccn3)n2)cc1 [Compound 1019, 1,1,1-trifluoro-2-methylpropan-2-yl ((2R,6S,7R,9R,13aS,14aR,16aS,Z)-2-((2-(4-isopropoxyphenyl)-6-(pyrimidin-2-yl)pyridin-4-yl)oxy)-7,9-dimethyl-14a-(((1-methylcyclopropyl)sulfonyl)carbamoyl)-5,16-dioxo-1,2,3,5,6,7,8,9,10,11,13a,14,14a,15,16,16a-hexadecahydrocyclopropa[e]pyrrolo[1,2-a][1,4]diazacyclopentadecin-6-yl)carbamate]	8.30 to 9.00	8.30 to 9.00	–	–
CC(C)Oc1ccc(-c2cc(O[C@@H]3C[C@H]4C(=O)N[C@]5(C(=O)NS(=O)(=O)C6(C)CC6)C[C@H]5/C=C\CC[C@H](C)C[C@@H](C)[C@H](NC(=O)OC(C)(C)C(F)(F)F)C(=O)N4C3)cc(-c3ncccn3)n2)cc1 [Compound 1020, 1,1,1-trifluoro-2-methylpropan-2-yl ((2R,6S,7R,9S,13aS,14aR,16aS,Z)-2-((2-(4-isopropoxyphenyl)-6-(pyrimidin-2-yl)pyridin-4-yl)oxy)-7,9-dimethyl-14a-(((1-methylcyclopropyl)sulfonyl)carbamoyl)-5,16-dioxo-1,2,3,5,6,7,8,9,10,11,13a,14,14a,15,16,16a-hexadecahydrocyclopropa[e]pyrrolo[1,2-a][1,4]diazacyclopentadecin-6-yl)carbamate]	7.46 to 8.30	8.30 to 9.00	–	–
CC(C)Oc1ccc(-c2cc(O[C@@H]3C[C@H]4C(=O)N[C@]5(C(=O)NS(=O)(=O)C6(C)CC6)C[C@H]5/C=C\CC[C@@H](C)C[C@@H](C)[C@H](NC(=O)OC(C)(C)C(F)(F)F)C(=O)N4C3)cc(-c3ccccn3)n2)cc1 [Compound 1021, 1,1,1-trifluoro-2-methylpropan-2-yl ((2R,6S,7R,9R,13aS,14aR,16aS,Z)-2-((6-(4-isopropoxyphenyl)-[2,2′-bipyridin]-4-yl)oxy)-7,9-dimethyl-14a-(((1-methylcyclopropyl)sulfonyl)carbamoyl)-5,16-dioxo-1,2,3,5,6,7,8,9,10,11,13a,14,14a,15,16,16a-hexadecahydrocyclopropa[e]pyrrolo[1,2-a][1,4]diazacyclopentadecin-6-yl)carbamate]	8.30 to 9.00	9.00 to 9.29	–	–
CC(C)Oc1ccc(-c2cc(O[C@@H]3C[C@H]4C(=O)N[C@]5(C(=O)NS(=O)(=O)C6(C)CC6)C[C@H]5/C=C\CC[C@H](C)C[C@@H](C)[C@H](NC(=O)OC(C)(C)C(F)(F)F)C(=O)N4C3)cc(-c3ccccn3)n2)cc1 [Compound 1022, 1,1,1-trifluoro-2-methylpropan-2-yl ((2R,6S,7R,9S,13aS,14aR,16aS,Z)-2-((6-(4-isopropoxyphenyl)-[2,2′-bipyridin]-4-yl)oxy)-7,9-dimethyl-14a-(((1-methylcyclopropyl)sulfonyl)carbamoyl)-5,16-dioxo-1,2,3,5,6,7,8,9,10,11,13a,14,14a,15,16,16a-hexadecahydrocyclopropa[e]pyrrolo[1,2-a][1,4]diazacyclopentadecin-6-yl)carbamate]	7.46 to 8.30	8.30 to 9.00	–	–
